PubChem BioAssay AID330 (DTP/NCI, 2004)
Values joined by “and” are separate entries in the source; they are usually repeats but may differ in a detail not shown here. Equal values may be shown once. Toxic doses and inconclusive results are not listed. Rule for the calls: active = survival T/C of 150% or more; inactive = T/C below 125% in these data. Peptide text beside a SMILES is read from it. * marks the point of attachment. Cbz = O=C(OCc1ccccc1)*

Tested on: P388 leukemia ip, CD2F1 mice, survival T/C
Experiment: NCI In Vivo Anticancer Drug Screen. Data for tumor model P388 Leukemia (intraperitoneal) in CD2F1 (CDF1) mice
Details: endpoint: median survival time, higher = longer survival
Summary of the method: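 Mice carrying the transplanted tumor received test compound or vehicle. Survival was recorded in each group, and the value is the treated-group measurement divided by that of the vehicle-treated control group.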

[1] = dose: 25.0 mg/kg/injection, schedule: Q01DX009 (ip), vehicle: Klucel (hydroxypropylcellulose) (HPC)
[2] = dose: 50.0 mg/kg/injection, schedule: Q01DX009 (ip), vehicle: Klucel (hydroxypropylcellulose) (HPC)
[3] = dose: 100.0 mg/kg/injection, schedule: Q01DX009 (ip), vehicle: Klucel (hydroxypropylcellulose) (HPC)
[4] = dose: 200.0 mg/kg/injection, schedule: Q01DX009 (ip), vehicle: Klucel (hydroxypropylcellulose) (HPC)
[5] = dose: 25.0 mg/kg/injection, schedule: Q01DX009 (ip), vehicle: saline with Tween-80
[6] = dose: 50.0 mg/kg/injection, schedule: Q01DX009 (ip), vehicle: saline with Tween-80
[7] = dose: 25.0 mg/kg/injection, schedule: Q04DX003 (ip), vehicle: saline with Tween-80
[8] = dose: 50.0 mg/kg/injection, schedule: Q04DX003 (ip), vehicle: saline with Tween-80
[9] = dose: 100.0 mg/kg/injection, schedule: Q04DX003 (ip), vehicle: saline with Tween-80
[10] = dose: 200.0 mg/kg/injection, schedule: Q04DX003 (ip), vehicle: saline with Tween-80
[11] = dose: 100.0 mg/kg/injection, schedule: Q01DX009 (ip), vehicle: saline with Tween-80
[12] = dose: 200.0 mg/kg/injection, schedule: Q01DX009 (ip), vehicle: saline with Tween-80
[13] = dose: 25.0 mg/kg/injection, schedule: Q01DX009 (ip), vehicle: other
[14] = dose: 50.0 mg/kg/injection, schedule: Q01DX009 (ip), vehicle: other
[15] = dose: 100.0 mg/kg/injection, schedule: Q01DX009 (ip), vehicle: other
[16] = dose: 50.0 mg/kg/injection, schedule: Q01DX005 (ip), vehicle: Klucel (hydroxypropylcellulose) (HPC)
[17] = dose: 100.0 mg/kg/injection, schedule: Q01DX005 (ip), vehicle: Klucel (hydroxypropylcellulose) (HPC)
[18] = dose: 200.0 mg/kg/injection, schedule: Q01DX005 (ip), vehicle: Klucel (hydroxypropylcellulose) (HPC)
[19] = dose: 25.0 mg/kg/injection, schedule: Q01DX005 (ip), vehicle: saline with Tween-80
[20] = dose: 50.0 mg/kg/injection, schedule: Q01DX005 (ip), vehicle: saline with Tween-80
[21] = dose: 100.0 mg/kg/injection, schedule: Q01DX005 (ip), vehicle: saline with Tween-80
[22] = dose: 200.0 mg/kg/injection, schedule: Q01DX005 (ip), vehicle: saline with Tween-80

Measured: T/C

CC(=O)Nc1c(C)cccc1C
inactive: [1] 93 % of control | [2] 100 % of control | [3] 97 % of control | [4] 103 % of control

Brc1ccc(C[N+]23CCN(CC2)CC3)cc1
inactive: dose: 12.5 mg/kg/injection, schedule: Q01DX009 (ip), vehicle: saline with Tween-80 95 % of control | [5] 90 % of control | [6] 90 % of control

Cc1ccc(-c2nc3ncnc(N)c3[nH]2)cc1
inactive: dose: 6.25 mg/kg/injection, schedule: Q04DX003 (ip), vehicle: saline with Tween-80 100 % of control | dose: 12.5 mg/kg/injection, schedule: Q04DX003 (ip), vehicle: saline with Tween-80 100 % of control | [7] 100 % of control and 107 % of control and 114 % of control | [8] 102 % of control and 113 % of control | [9] 108 % of control and 124 % of control | [10] 116 % of control

O=C1NC(=O)C2(N1)C1CCCC2C(c2ccccc2)NC1c1ccccc1 (centres undefined)
inactive: dose: 60.0 mg/kg/injection, schedule: Q01DX005 (ip), vehicle: saline with Tween-80 96 % of control | dose: 120.0 mg/kg/injection, schedule: Q01DX005 (ip), vehicle: saline with Tween-80 91 % of control | dose: 240.0 mg/kg/injection, schedule: Q01DX005 (ip), vehicle: saline with Tween-80 90 % of control

c1ccc(CN2CCC3(CC2)CO3)cc1
inactive: dose: 100.0 mg/kg/injection, schedule: Q01DX001 (ip), vehicle: Klucel (hydroxypropylcellulose) (HPC) 106 % of control | dose: 200.0 mg/kg/injection, schedule: Q01DX001 (ip), vehicle: Klucel (hydroxypropylcellulose) (HPC) 100 % of control

COC1=C(OC)C(=O)C(SC/C=C(\C)CCCC(C)CCCC(C)CCCC(C)C)=CC1=O (centres undefined)
inactive: dose: 6.25 mg/kg/injection, schedule: Q01DX009 (ip), vehicle: saline with Tween-80 105 % of control and 106 % of control and 113 % of control

O=C1/C(=C/c2cccnc2)CCc2ccccc21
inactive: [5] 104 % of control | [2] 116 % of control | [6] 108 % of control | [3] 102 % of control | [11] 105 % of control | [4] 109 % of control | [12] 95 % of control

c1ccc2c(c1)SP(P1Sc3ccccc3S1)S2
inactive: [2] 100 % of control | [3] 107 % of control

O=C(O)C(CSC(c1ccccc1)(c1ccccc1)c1ccccc1)NC(c1ccccc1)(c1ccccc1)c1ccccc1 (centres undefined)
inactive: dose: 12.5 mg/kg/injection, schedule: Q01DX009 (ip), vehicle: other 93 % of control | [13] 94 % of control | [14] 93 % of control | [15] 98 % of control

CCOC(=O)Nc1cc(Cl)c2[nH]cnc2n1
inactive: [16] 97 % of control | [17] 101 % of control | [18] 108 % of control

c1ccc(O[Si](Oc2ccccc2)(Oc2ccccc2)Oc2ccccc2)cc1
inactive: [13] 86 % of control | [14] 96 % of control | [15] 99 % of control

CCOc1ccc(OCC)c(C(O)C(C)NC(C)C)c1 (centres undefined)
inactive: dose: 6.25 mg/kg/injection, schedule: Q01DX009 (ip), vehicle: Klucel (hydroxypropylcellulose) (HPC) 101 % of control | dose: 12.5 mg/kg/injection, schedule: Q01DX009 (ip), vehicle: Klucel (hydroxypropylcellulose) (HPC) 100 % of control | [1] 99 % of control and 115 % of control

CC(=O)OC1CC2CC1C1C3C=CC(C3)C21 (centres undefined)
inactive: [5] 100 % of control | [6] 104 % of control | dose: 100.0 mg/kg/injection, schedule: Q01DX001 (ip), vehicle: saline 100 % of control | dose: 200.0 mg/kg/injection, schedule: Q01DX001 (ip), vehicle: saline 91 % of control | dose: 400.0 mg/kg/injection, schedule: Q01DX001 (ip), vehicle: saline 95 % of control

CC1(O)CC2(O)C=CC3=C(C(=O)c4cccc(O)c4C3=O)C2(O)C(=O)C1O (centres undefined)
inactive: dose: 0.75 mg/kg/injection, schedule: Q01DX005 (ip), vehicle: distilled water + Tween-80 + alcohol 107 % of control | dose: 1.5 mg/kg/injection, schedule: Q01DX005 (ip), vehicle: distilled water + Tween-80 + alcohol 114 % of control

O=C(O)c1ccc(C(=O)NCCCN(CCCCN(CCCNC(=O)c2ccc(C(=O)O)c(O)c2O)C(=O)c2ccc(C(=O)O)c(O)c2O)C(=O)c2ccc(C(=O)O)c(O)c2O)c(O)c1O
inactive: dose: 50.0 mg/kg/injection, schedule: Q01DX005 (ip), vehicle: saline 99 % of control | dose: 100.0 mg/kg/injection, schedule: Q01DX005 (ip), vehicle: saline 101 % of control | dose: 200.0 mg/kg/injection, schedule: Q01DX005 (ip), vehicle: saline 99 % of control

CCC(C)C(NC(=O)OCc1ccccc1)C(=O)NC(CCSC)C(=O)O (stereo not drawn) (Cbz-Ile-Met-OH; configuration not given here)
inactive: [16] 99 % of control | [17] 100 % of control | [18] 96 % of control

CC1CCCC(C)N1NC1=NCCO1 (centres undefined)
inactive: [7] 104 % of control | [8] 95 % of control

OC1(O)/C=C\CCCCC/C=C\1
inactive: [19] 100 % of control | [20] 101 % of control | [21] 99 % of control and 102 % of control | [22] 105 % of control

CS1=C2C(=O)CC(C)(C)CC2=Nc2ccccc21 (centres undefined)
inactive: dose: 12.5 mg/kg/injection, schedule: Q01DX005 (ip), vehicle: saline with Tween-80 104 % of control | [19] 104 % of control | [20] 99 % of control and 100 % of control

CSc1n[nH]c(N)c1C(N)=O
inactive: dose: 100.0 mg/kg/injection, schedule: Q01DX001 (ip), vehicle: saline with Tween-80 107 % of control | dose: 200.0 mg/kg/injection, schedule: Q01DX001 (ip), vehicle: saline with Tween-80 100 % of control | dose: 400.0 mg/kg/injection, schedule: Q01DX001 (ip), vehicle: saline with Tween-80 111 % of control

Cc1[nH]c2c(ccc3c2ccc2c(=O)c(Cl)c(C)[nH]c23)c(=O)c1Cl
inactive: [20] 96 % of control | [21] 95 % of control | [22] 94 % of control

COc1ccc(C2=C(Cl)C(=O)N(c3ccccc3OC)C(=O)C2(Cl)Cl)cc1
inactive: dose: 100.0 mg/kg/injection, schedule: Q04DX003 (ip), vehicle: Klucel (hydroxypropylcellulose) (HPC) 107 % of control | dose: 200.0 mg/kg/injection, schedule: Q04DX003 (ip), vehicle: Klucel (hydroxypropylcellulose) (HPC) 103 % of control | dose: 400.0 mg/kg/injection, schedule: Q04DX003 (ip), vehicle: Klucel (hydroxypropylcellulose) (HPC) 98 % of control

Cc1cc(=O)[nH]c(N/N=C/c2ccccc2O)n1
inactive: [11] 90 % of control | [9] 90 % of control | [12] 90 % of control | [10] 90 % of control | dose: 400.0 mg/kg/injection, schedule: Q01DX009 (ip), vehicle: saline with Tween-80 90 % of control | dose: 400.0 mg/kg/injection, schedule: Q04DX003 (ip), vehicle: saline with Tween-80 100 % of control

CCCOC1(C)CC(c2cc(OC)c(OC)c(OC)c2)c2cc3c(cc2O1)OCO3 (centres undefined)
inactive: dose: 60.0 mg/kg/injection, schedule: Q01DX005 (ip), vehicle: Klucel (hydroxypropylcellulose) (HPC) 93 % of control | dose: 120.0 mg/kg/injection, schedule: Q01DX005 (ip), vehicle: Klucel (hydroxypropylcellulose) (HPC) 91 % of control | dose: 240.0 mg/kg/injection, schedule: Q01DX005 (ip), vehicle: Klucel (hydroxypropylcellulose) (HPC) 91 % of control

CC(C)CC(N)CO (centres undefined)
inactive: dose: 50.0 mg/kg/injection, schedule: Q01DX005 (ip), vehicle: suspension in saline 105 % of control | dose: 100.0 mg/kg/injection, schedule: Q01DX005 (ip), vehicle: suspension in saline 106 % of control | dose: 200.0 mg/kg/injection, schedule: Q01DX005 (ip), vehicle: suspension in saline 106 % of control

O=C1OCC2C3C=CC(O3)C12 (centres undefined)
inactive: dose: 100.0 mg/kg/injection, schedule: Q04DX003 (ip), vehicle: saline 100 % of control | dose: 200.0 mg/kg/injection, schedule: Q04DX003 (ip), vehicle: saline 102 % of control

CC12c3ccccc3C(C)(c3ccccc31)C(C(=O)O)C2Br (centres undefined)
inactive: [16] 100 % of control | [17] 103 % of control | [18] 95 % of control
